According to US8436036B2, “Diaryl ethers” (Janssen R&D Ireland, priority 2009, dated 2013):

Columns and labels:
HCV replicon = HCV replicon assay (Huh-Luc cells, luciferase read-out); type: cell-based, HCV type Ib; conditions: Hepatitis C virus, 72 h, three days incubation, luciferase activity
Excerpt: The compounds of formula (I) were examined for inhibitory activity in the HCV replicon. This cellular assay is based on a bicistronic expression construct, as described by Lohmann et al. (1999) Science vol. 285 pp. 110-113 with modifications described by Krieger et al. (2001) Journal of Virology 75: 4614-4624, in a multi-target screening strategy.
In essence, the method was as follows:
The assay utilized the stably transfected cell line Huh-7 luc/neo (hereafter referred to as Huh-Luc). This cell line harbors an RNA encoding a bicistronic expression construct comprising the wild type NS3-NS5B regions of HCV type Ib translated from an Internal Ribosome Entry Site (IRES) from encephalomyocarditis virus (EMCV), preceded by a reporter portion (FfL-luciferase), and a selectable marker portion (neo^R, neomycine phosphotransferase). The construct is flanked by 5′ and 3′ NTRs (non-translated regions) from HCV type Ib. Continued culture of the replicon cells in the presence of G418 (neo^R) is dependent on the replication of the HCV RNA. The stably transfected replicon cells that express HCV RNA, which replicates autonomously and to high levels, encoding inter alia luciferase, were used for screening the antiviral compounds.
The replicon cells were plated in 384 well plates in the presence of the test and control compounds which were added in various concentrations. Following an incubation of three days, HCV replication was measured by assaying luciferase activity (using standard luciferase assay substrates and reagents and a Perkin Elmer ViewLux™ ultraHTS microplate imager). Replicon cells in the control cultures have high luciferase expression in the absence of any inhibitor. The inhibitory activity of the compound on luciferase activity was monitored on the Huh-Luc cells, enabling a dose-response curve for each test compound. EC50 values were then calculated, which represent the amount of compound required to decrease the level of detected luciferase activity by 50%, or more specifically, to reduce the ability of the genetically linked HCV replicon RNA to replicate.

Cytotoxicity (Huh-7) = type: cell-based; conditions: human, Huh-7 cells
Excerpt: The in vitro antiviral activity against HCV of the compounds of formula I can be tested in a cellular HCV replicon system based on Lohmann et al. (1999) Science 285:110-113, with the further modifications described by Krieger et al. (2001) Journal of Virology 75: 4614-4624 (incorporated herein by reference), which is further exemplified in the examples section. This model, while not a complete infection model for HCV, is widely accepted as the most robust and efficient model of autonomous HCV RNA replication currently available. It will be appreciated that it is important to distinguish between compounds that specifically interfere with HCV functions from those that exert cytotoxic or cytostatic effects in the HCV replicon model, and as a consequence cause a decrease in HCV RNA or linked reporter enzyme concentration. Assays are known in the field for the evaluation of cellular cytotoxicity based for example on the activity of mitochondrial enzymes using fluorogenic redox dyes such as resazurin. Furthermore, cellular counter screens exist for the evaluation of non-selective inhibition of linked reporter gene activity, such as firefly luciferase. Appropriate cell types can be equipped by stable transfection with a luciferase reporter gene whose expression is dependent on a constitutively active gene promoter, and such cells can be used as a counter-screen to eliminate non-selective inhibitors.

In the case of `COC(=O)N[C@H](C(=O)N1CCC[C@H]1c1nc(-c2ccc(Oc3ccc(OC)c(-c4c[nH]c([C@@H]5CCCN5C(=O)[C@@H](NC(=O)OC)C(C)C)n4)c3)cc2)c[nH]1)C(C)C` [Example 45], the EC50 (HCV replicon) is reported as 0.0627 µM and the CC50 (Cytotoxicity (Huh-7)) is reported as 1.66 µM.

In the case of `O=C(Cc1ccc2c(c1)OCO2)N1CCC[C@H]1c1nc(-c2cccc(Oc3ccc(-c4cnc([C@@H]5CCCN5C(=O)Cc5ccc6c(c5)OCO6)[nH]4)cc3)c2)c[nH]1` [Example 19], the EC50 (HCV replicon) is reported as 1.07 µM and the CC50 (Cytotoxicity (Huh-7)) is reported as > 31.5 µM.

For `O=C(c1cccnc1)N1CCC[C@H]1c1nc(-c2cccc(Oc3ccc(-c4cnc([C@@H]5CCCN5C(=O)c5cccnc5)[nH]4)cc3)c2)c[nH]1` [Example 38], the EC50 (HCV replicon) was 1.27 µM and the CC50 (Cytotoxicity (Huh-7)) was > 31.5 µM.

With `O=C(CCc1ccccc1F)N1CCC[C@H]1c1nc(-c2cccc(Oc3ccc(-c4cnc([C@@H]5CCCN5C(=O)CCc5ccccc5F)[nH]4)cc3)c2)c[nH]1` [Example 26] the EC50 (HCV replicon) was 2.31 µM and the CC50 (Cytotoxicity (Huh-7)) was > 31.5 µM.

For `Cc1nc(C(=O)N2CCC[C@H]2c2nc(-c3cccc(Oc4ccc(-c5cnc([C@@H]6CCCN6C(=O)c6nc(C)oc6C)[nH]5)cc4)c3)c[nH]2)c(C)o1` [Example 33], the EC50 (HCV replicon) was 0.864 µM and the CC50 (Cytotoxicity (Huh-7)) was > 31.5 µM.

For `COc1c(F)cc(CC(=O)N2CCC[C@H]2c2nc(-c3cccc(Oc4ccc(-c5cnc([C@@H]6CCCN6C(=O)Cc6cc(F)c(OC)c(F)c6)[nH]5)cc4)c3)c[nH]2)cc1F` [Example 25], the EC50 (HCV replicon) was 3.39 µM and the CC50 (Cytotoxicity (Huh-7)) was > 31.5 µM.

For `O=C(Cc1ccccc1OC(F)(F)F)N1CCC[C@H]1c1nc(-c2cccc(Oc3ccc(-c4cnc([C@@H]5CCCN5C(=O)Cc5ccccc5OC(F)(F)F)[nH]4)cc3)c2)c[nH]1` [Example 24], the EC50 (HCV replicon) was 0.0144 µM and the CC50 (Cytotoxicity (Huh-7)) was > 31.5 µM.

With `O=C(C(=O)N1CCC[C@H]1c1nc(-c2cccc(Oc3ccc(-c4cnc([C@@H]5CCCN5C(=O)C(=O)c5ccccc5)[nH]4)cc3)c2)c[nH]1)c1ccccc1` [Example 20] the EC50 (HCV replicon) was 0.0582 µM and the CC50 (Cytotoxicity (Huh-7)) was > 31.5 µM.

With `O=C(c1ccc(F)cc1)N1CCC[C@H]1c1nc(-c2cccc(Oc3ccc(-c4cnc([C@@H]5CCCN5C(=O)c5ccc(F)cc5)[nH]4)cc3)c2)c[nH]1` [Example 34] the EC50 (HCV replicon) was 4.34 µM and the CC50 (Cytotoxicity (Huh-7)) was > 31.5 µM.

For `CN(C)CCC(=O)N1CCC[C@H]1c1nc(-c2cccc(Oc3ccc(-c4cnc([C@@H]5CCCN5C(=O)CCN(C)C)[nH]4)cc3)c2)c[nH]1` [Example 41], the EC50 (HCV replicon) was 1.24 µM and the CC50 (Cytotoxicity (Huh-7)) was > 31.5 µM.

With `Cc1cccc(CC(=O)N2CCC[C@H]2c2nc(-c3cccc(Oc4ccc(-c5cnc([C@@H]6CCCN6C(=O)Cc6cccc(C)c6)[nH]5)cc4)c3)c[nH]2)c1` [Example 11, 2-m-tolyl-1-((2S)-2-(5-(4-(3-(2-((S)-1-(2-m-tolylacetyl)pyrrolidin-2-yl)-1H-imidazol-4-yl)phenoxy)phenyl)-1H-imidazol-2-yl)pyrrolidin-1-yl)ethanone] the EC50 (HCV replicon) was 6.18 µM and the CC50 (Cytotoxicity (Huh-7)) was > 31.5 µM.

With `COc1cccc(CCC(=O)N2CCC[C@H]2c2nc(-c3cccc(Oc4ccc(-c5cnc([C@@H]6CCCN6C(=O)CCc6cccc(OC)c6)[nH]5)cc4)c3)c[nH]2)c1` [Example 27] the EC50 (HCV replicon) was 3.53 µM and the CC50 (Cytotoxicity (Huh-7)) was > 31.5 µM.

Molecule `CN(C)[C@@H](C(=O)N1CCC[C@H]1c1ncc(-c2ccc(Oc3cccc(-c4cnc([C@@H]5CCCN5C(=O)[C@@H](c5ccccc5)N(C)C)[nH]4)c3)cc2)[nH]1)c1ccccc1` [Example 43] has an EC50 (HCV replicon) of 0.000114 µM and a CC50 (Cytotoxicity (Huh-7)) of 0.7 µM.

In the case of `O=C(Cc1cccnc1)N1CCC[C@H]1c1nc(-c2cccc(Oc3ccc(-c4cnc([C@@H]5CCCN5C(=O)Cc5cccnc5)[nH]4)cc3)c2)c[nH]1` [Example 18], the EC50 (HCV replicon) is reported as 0.0543 µM and the CC50 (Cytotoxicity (Huh-7)) is reported as > 31.5 µM.

Work on `CC(C)C[C@@H](C(=O)N1CCC[C@H]1c1nc(-c2cccc(Oc3ccc(-c4cnc([C@@H]5CCCN5C(=O)[C@H](CC(C)C)N(C)C)[nH]4)cc3)c2)c[nH]1)N(C)C` [Example 36] yielded an EC50 (HCV replicon) of 3.03 µM and a CC50 (Cytotoxicity (Huh-7)) of 7.76 µM.

In the case of `O=C(CCS(=O)(=O)c1ccccc1)N1CCC[C@H]1c1nc(-c2cccc(Oc3ccc(-c4cnc([C@@H]5CCCN5C(=O)CCS(=O)(=O)c5ccccc5)[nH]4)cc3)c2)c[nH]1` [Example 21], the EC50 (HCV replicon) is reported as 3.7 µM and the CC50 (Cytotoxicity (Huh-7)) is reported as > 31.5 µM.

In the case of `COc1ccc(Oc2ccc(-c3c[nH]c([C@@H]4CCCN4C(=O)[C@@H](c4ccccc4)N(C)C)n3)cc2)cc1-c1c[nH]c([C@@H]2CCCN2C(=O)[C@@H](c2ccccc2)N(C)C)n1` [Example 47], the EC50 (HCV replicon) is reported as 0.000705 µM.

For `CCN(CC)[C@@H](C(=O)N1CCC[C@H]1c1nc(-c2cccc(Oc3ccc(-c4cnc([C@@H]5CCCN5C(=O)[C@@H](c5ccccc5)N(CC)CC)[nH]4)cc3)c2)c[nH]1)c1ccccc1` [Example 44], the EC50 (HCV replicon) was 0.00012 µM and the CC50 (Cytotoxicity (Huh-7)) was 0.78 µM.

For `COC(=O)NC(C(=O)N1CCC[C@H]1c1nc(-c2ccc(Oc3ccc(OC)c(-c4cnc([C@@H]5CCCN5C(=O)C(NC(=O)OC)c5ccccc5)[nH]4)c3)cc2)c[nH]1)c1ccccc1` (stereo partly shown) [Example 46], the EC50 (HCV replicon) was > 0.98 µM and the CC50 (Cytotoxicity (Huh-7)) was > 98.4 µM.

With `O=C(Cc1ccccc1)N1CCC[C@H]1c1ncc(-c2ccc(Oc3ccc(-c4cnc([C@@H]5CCCN5C(=O)Cc5ccccc5)[nH]4)cc3)cc2)[nH]1` [Example 49] the EC50 (HCV replicon) was 1.12 µM and the CC50 (Cytotoxicity (Huh-7)) was > 31.5 µM.

With `O=C([C@H]1CCCO1)N1CCC[C@H]1c1nc(-c2cccc(Oc3ccc(-c4cnc([C@@H]5CCCN5C(=O)[C@H]5CCCO5)[nH]4)cc3)c2)c[nH]1` [Example 22] the EC50 (HCV replicon) was 1.09 µM and the CC50 (Cytotoxicity (Huh-7)) was > 31.5 µM.

With `O=C(CC1CCCCC1)N1CCC[C@H]1c1nc(-c2cccc(Oc3ccc(-c4cnc([C@@H]5CCCN5C(=O)CC5CCCCC5)[nH]4)cc3)c2)c[nH]1` [Example 28] the EC50 (HCV replicon) was 5.47 µM and the CC50 (Cytotoxicity (Huh-7)) was > 31.5 µM.

For `O=C(C(O)c1ccccc1)N1CCC[C@H]1c1nc(-c2cccc(Oc3ccc(-c4cnc([C@@H]5CCCN5C(=O)C(O)c5ccccc5)[nH]4)cc3)c2)c[nH]1` (stereo partly drawn) [Example 10, 2-hydroxy-1-((2S)-2-(5-(4-(3-(2-((2S)-1-(2-hydroxy-2-phenylacetyl)-pyrrolidin-2-yl)-1H-imidazol-4-yl)phenoxy)phenyl)-1H-imidazol-2-yl)pyrrolidin-1-yl)-2-phenylethanone], the EC50 (HCV replicon) was < 0.0005 µM and the CC50 (Cytotoxicity (Huh-7)) was 4.86 µM.

For `O=C(Cc1ccccc1)N1CCC[C@H]1c1nc(-c2cccc(Oc3ccc(-c4cnc([C@@H]5CCCN5C(=O)Cc5ccccc5)[nH]4)cc3)c2)c[nH]1` [Example 9, 2-phenyl-1-((S)-2-(5-(4-(3-(2-((S)-1-(2-phenylacetyl)pyrrolidin-2-yl)-1H-imidazol-4-yl)phenoxy)phenyl)-1H-imidazol-2-yl)pyrrolidin-1-yl)ethanone], the EC50 (HCV replicon) was 0.077 µM and the CC50 (Cytotoxicity (Huh-7)) was > 31.5 µM.

With `O=C(C(c1ccccc1)n1ccnc1)N1CCC[C@H]1c1nc(-c2cccc(Oc3ccc(-c4cnc([C@@H]5CCCN5C(=O)C(c5ccccc5)n5ccnc5)[nH]4)cc3)c2)c[nH]1` (stereo partly shown) [Example 35] the EC50 (HCV replicon) was 0.00472 µM and the CC50 (Cytotoxicity (Huh-7)) was > 31.5 µM.

Molecule `CN(C)C(C(=O)N1CCC[C@H]1c1nc(-c2cccc(Oc3ccc(-c4cnc([C@@H]5CCCN5C(=O)C(c5ccc(Cl)cc5)N(C)C)[nH]4)cc3)c2)c[nH]1)c1ccc(Cl)cc1` (stereo partly shown) [Example 30] has an EC50 (HCV replicon) of 0.00362 µM and a CC50 (Cytotoxicity (Huh-7)) of 4.6 µM.

With `O=C(c1ccccn1)N1CCC[C@H]1c1nc(-c2cccc(Oc3ccc(-c4cnc([C@@H]5CCCN5C(=O)c5ccccn5)[nH]4)cc3)c2)c[nH]1` [Example 37] the EC50 (HCV replicon) was 15.4 µM and the CC50 (Cytotoxicity (Huh-7)) was > 31.5 µM.

For `COC(=O)N[C@H](C(=O)N1CCC[C@H]1c1ncc(-c2ccc(Oc3cccc(-c4cnc([C@@H]5CCCN5C(=O)[C@@H](NC(=O)OC)[C@@H](C)OC)[nH]4)c3)cc2)[nH]1)[C@@H](C)OC` [Example 39], the EC50 (HCV replicon) was 7.94e-05 µM and the CC50 (Cytotoxicity (Huh-7)) was > 31.5 µM.

`CC(C)[C@@H](C(=O)N1CCC[C@H]1c1nc(-c2cccc(Oc3ccc(-c4cnc([C@@H]5CCCN5C(=O)[C@H](C(C)C)N(C)C)[nH]4)cc3)c2)c[nH]1)N(C)C` [Example 31] showed an EC50 (HCV replicon) of 1.16 µM and a CC50 (Cytotoxicity (Huh-7)) of 2.87 µM.

With `COC(=O)N[C@H](C(=O)N1CCC[C@H]1c1nc(-c2cccc(Oc3ccc(-c4cnc([C@@H]5CCCN5C(=O)[C@@H](NC(=O)OC)C(C)C)[nH]4)cc3)c2)c[nH]1)C(C)C` [Example 42] the EC50 (HCV replicon) was 4.33e-05 µM and the CC50 (Cytotoxicity (Huh-7)) was 18.6 µM.

With `O=C(c1ccoc1)N1CCC[C@H]1c1nc(-c2cccc(Oc3ccc(-c4cnc([C@@H]5CCCN5C(=O)c5ccoc5)[nH]4)cc3)c2)c[nH]1` [Example 32] the EC50 (HCV replicon) was 0.978 µM and the CC50 (Cytotoxicity (Huh-7)) was > 31.5 µM.
